In ChEMBL document CHEMBL3217605, “Synthesis, microbial transformation, and pharmacological evaluation of 4,5-dihydronaphtho[2,1-b]furan-2-ones and related analogues” (Medchemcomm, 2013):
Activity calls are given as the source filed them. No cut-off for these calls is given here.

Legend:
MDA-MB-231 [1] = assay: Cytotoxicity against human MDA-MB-231 cells at 10 to 30 uM; assay type: cell-based; conditions: mda-mb-231, 30 µM
MDA-MB-231 [2] = assay: Antimigratory activity against human MDA-MB-231 cells assessed cell migration level at 30 uM by wound healing assay; assay type: functional
MDA-MB-231 [3] = assay: Antimigratory activity against human MDA-MB-231 cells assessed cell migration level at 10 uM by wound healing assay; assay type: functional
MDA-MB-468 = assay: Growth inhibition of human MDA-MB-468 cells assessed as cell growth at 10 uM after 48 hrs by SRB assay; assay type: functional; conditions: MDA-MB-468, 48 h, read-out: Activity
T47D = assay: Growth inhibition of human T47D cells assessed as cell growth at 10 uM after 48 hrs by SRB assay; assay type: functional; conditions: read-out: Activity
MCF7 = assay: Growth inhibition of human MCF7 cells assessed as cell growth at 10 uM after 48 hrs by SRB assay; assay type: functional; conditions: MCF7, 48 h, read-out: Activity
[4] = Growth inhibition of human UACC62 cells assessed as cell growth at 10 uM after 48 hrs by SRB assay; assay type: functional; conditions: UACC-62, 48 h, read-out: Activity
SK-MEL-5 = assay: Growth inhibition of human SK-MEL-5 cells assessed as cell growth at 10 uM after 48 hrs by SRB assay; assay type: functional; conditions: SK-MEL-5, 48 h, read-out: Activity
M14 = assay: Growth inhibition of human M14 cells assessed as cell growth at 10 uM after 48 hrs by SRB assay; assay type: functional; conditions: M14, 48 h, read-out: Activity
Malme-3M = assay: Growth inhibition of human MALME-3M cells assessed as cell growth at 10 uM after 48 hrs by SRB assay; assay type: functional; conditions: read-out: Activity
PC-3 = assay: Growth inhibition of human PC3 cells assessed as cell growth at 10 uM after 48 hrs by SRB assay; assay type: functional; conditions: PC-3, 48 h, read-out: Activity
RPMI-8226 = assay: Growth inhibition of human RPMI8226 cells assessed as cell growth at 10 uM after 48 hrs by SRB assay; assay type: functional; conditions: RPMI-8226, 48 h, read-out: Activity
K562 = assay: Growth inhibition of human K562 cells assessed as cell growth at 10 uM after 48 hrs by SRB assay; assay type: functional; conditions: K562, 48 h, read-out: Activity
HL-60(TB) = assay: Growth inhibition of human HL-60(TB) cells assessed as cell growth at 10 uM after 48 hrs by SRB assay; assay type: functional; conditions: HL-60, 48 h, read-out: Activity
[5] = Growth inhibition of human NCI60 cells assessed as mean cell growth at 10 uM after 48 hrs by SRB assay; assay type: functional; design: scale not given: the % may be the effect or the level left
[6] = Anti-neuroinflammatory activity in LPS-induced activated rat Microglia cells assessed as reduction in super oxide anion radical generation; assay type: functional
[7] = Anti-neuroinflammatory activity in LPS-induced activated rat Microglia cells assessed as reduction in TXB2 release; assay type: functional
Microglia [8] = assay: Anti-neuroinflammatory activity in LPS-induced activated rat Microglia cells assessed as reduction in TXB2 release at 10 uM; assay type: functional
Microglia [9] = assay: Anti-neuroinflammatory activity in LPS-induced activated rat Microglia cells assessed as reduction in super oxide anion radical generation at 10 uM; assay type: functional
[10] = Toxicity in LPS-induced activated rat Microglia cells assessed as LDH release at 0.1 to 10 uM
[11] = Toxicity in LPS-induced activated rat Microglia cells assessed as LDH release at 10 uM

Row | SMILES | Activity (MDA-MB-231 [1]) | Activity (MDA-MB-231 [2]) | Activity (MDA-MB-231 [3]) | inhibition (Microglia [8]) | inhibition (Microglia [9]) | Activity [10] | also measured
1 | C=CCN1C(=O)C(c2ccccc2)=C2c3cc(OC)ccc3CCC21 (centres undefined) | Non-toxic | 32.9% | 47.8% | inactive | inactive | Non-toxic | growth at 10 µM (MDA-MB-468): 36.3%; growth at 10 µM (T47D): 40.7%; growth at 10 µM (MCF7): 61.5%; growth at 10 µM [4]: 35.3%; growth at 10 µM (SK-MEL-5): 40.9%; growth at 10 µM (M14): 46.7%; growth at 10 µM (Malme-3M): 0.19%; growth at 10 µM (PC-3): 25.7%; growth at 10 µM (RPMI-8226): 11.5%; growth at 10 µM (K562): 28.3%; growth at 10 µM (HL-60(TB)): 34.9%; Activity [5]: 59.8%; IC50 [6]: 1 µM; IC50 [7]: 1 µM
2 | COc1ccc2c(c1)[C@@H]1[C@H](CC2)OC(=O)[C@H]1c1ccccc1 (relative stereo) | Non-toxic | 45.7% | 100% | inactive | inactive | Non-toxic | –
3 | COc1ccc2c(c1)C1=C(C)C(=O)OC1CC2 (centres undefined) | Non-toxic | 47.8% | 71.4% | inactive | inactive | Non-toxic | growth at 10 µM (MDA-MB-468): 40.8%; growth at 10 µM (T47D): 64.3%; growth at 10 µM (MCF7): 65.2%; growth at 10 µM [4]: 57.1%; growth at 10 µM (SK-MEL-5): 65.8%; growth at 10 µM (M14): 63.7%; growth at 10 µM (Malme-3M): 35.4%; growth at 10 µM (PC-3): 43%; growth at 10 µM (RPMI-8226): 20.7%; growth at 10 µM (K562): 54.2%; growth at 10 µM (HL-60(TB)): 74.2%; Activity [5]: 73.9%
4 | COc1cccc2c1CC[C@@H]1OC(=O)[C@H](C)[C@H]21 | Non-toxic | 68.4% | 87.6% | inactive | inactive | Non-toxic | –
5 | COc1ccc2c(c1)C1=C(CO)C(=O)OC1CC2 (centres undefined) | Non-toxic | 61% | 81.8% | inactive | inactive | Non-toxic | –
6 | COc1ccc2c(c1)C1=C(c3ccccc3)C(=O)OC1C[C@H]2O (some centres undefined) | Non-toxic | 45.9% | 54.4% | inactive | inactive | Non-toxic | –
7 | COc1cccc2c1CCC1OC(=O)C(C)=C21 (centres undefined) | – | – | – | – | – | – | Activity [11]: Toxic
8 | NC(=O)Cc1ccccc1 | Non-toxic | 70.4% | 94.5% | inactive | inactive | Non-toxic | –
9 | COc1ccc2c(c1)[C@@H]1[C@H](CC2)OC(=O)[C@@H]1c1ccccc1 (relative stereo) | Non-toxic | 48.4% | 90.7% | inactive | inactive | Non-toxic | –
10 | COc1ccc2c(c1)C1=C(c3ccccc3)C(=O)OC1CC2 (centres undefined) | Non-toxic | 53.2% | 76.7% | – | inactive | Non-toxic | growth at 10 µM (MDA-MB-468): 27.4%; growth at 10 µM (T47D): 30.9%; growth at 10 µM (MCF7): 59.5%; growth at 10 µM [4]: 35.4%; growth at 10 µM (SK-MEL-5): 48.7%; growth at 10 µM (M14): 64.9%; growth at 10 µM (Malme-3M): 35.9%; growth at 10 µM (PC-3): 32%; growth at 10 µM (RPMI-8226): 18.1%; growth at 10 µM (K562): 42.1%; growth at 10 µM (HL-60(TB)): 53%; Activity [5]: 65.7%; IC50 [7]: 1 µM
11 | COc1ccc2c(c1)C1=C(C)C(=O)OC1C[C@H]2O (some centres undefined) | Non-toxic | 42.5% | 51.6% | inactive | inactive | Non-toxic | –
